Key:
[1] = tested on: HCV replicon cells (2209-23), genotype 1b replicon in Huh7 cells; test: HCV replicon assay (Renilla luciferase reporter); format: cell-based, HCV genotype 1b; human hepatoma Huh7 cells; details: Hepatitis C virus, Huh-7, 72 h, 2209-23 cells, three days incubation
[2] = target: T1, HCV polymerase (NS5B570n-Con1) (Hepatitis C virus genotype 1b, UniProt Q9WMX2); test: HCV NS5B RNA polymerase activity (HCV Polymerase Assay); format: biochemical, HCV Con1 strain
T1 construct: contains a 21 amino acid deletion at the C-terminus relative to the full-length HCV polymerase; made in house; host or cells: E. coli strain BL21(DE) pLysS, plasmid pET17b
Description: The enzymatic activity of HCV polymerase (NS5B570n-Con1) was measured as the incorporation of radiolabeled nucleotide monophosphates into acid insoluble RNA products. Unincorporated radiolabeled substrate was removed by filtration and scintillant was added to the washed and dried filter plate containing radiolabeled RNA product. The amount of RNA product generated by NS5B570-Con1 at the end of the reaction was directly proportional to the amount of light emitted by the scintillant.
The N-terminal 6-histidine tagged HCV polymerase, derived from HCV Con1 strain, genotype 1b (NS5B570n-Con1) contains a 21 amino acid deletion at the C-terminus relative to the full-length HCV polymerase and was purified from E. coli strain BL21(DE) pLysS. The construct, containing the coding sequence of HCV NS5B Con1 (GenBank accession number AJ242654) was inserted into the plasmid construct pET17b, downstream of a T7 promoter expression cassette and transformed into E. coli. A single colony was grown overnight as a starter culture and later used inoculate 10 L of LB media supplemented with 100 μg/mL ampicillin at 37° C. Protein expression was induced by the addition of 0.25 mM isopropyl-β-D-thiogalactopyranoside (IPTG) when optical density at […] of the culture was between 0.6 and 0.8 and cells were harvested after 16 to 18 h at 30° C. NS5B570n-Con1 was purified to homogeneity using a three-step protocol including subsequent column chromatography on Ni-NTA, SP-Sepharose HP and Superdex 75 resins.
Each 50 μL enzymatic reaction contained 20 nM RNA template derived from the complementary sequence of the Internal Ribosome Entry Site (cIRES), 20 nM NS5B570n-Con1 enzyme, 0.5 μCi of tritiated UTP (Perkin Elmer catalog no. TRK-412; specific activity: 30 to 60 Ci/mmol; stock solution concentration from 7.5×10^−5 M to 20.6×10^−6 M), 1 μM each ATP, CTP, and GTP, 40 mM Tris-HCl pH 8.0, 40 mM NaCl, 4 mM DTT (dithiothreitol), 4 mM MgCl2, and 5 μL of compound serial diluted in DMSO. Reaction mixtures were assembled in 96-well filter plates (cat #MADVNOB, Millipore Co.) and incubated for 2 h at 30° C. Reactions were stopped by addition of 10% final (v/v) trichloroacetic acid and incubated for 40 min at 4° C. Reactions were filtered, washed with 8 reaction volumes of 10% (v/v) trichloroacetic acetic acid, 4 reaction volumes of 70% (v/v) ethanol, air dried, and 25 μL of scintillant (Microscint 20, Perkin-Elmer) was added to each reaction well.
The amount of light emitted from the scintillant was converted to counts per minute (CPM) on a Topcount® plate reader (Perkin-Elmer, Energy Range: Low, Efficiency Mode Normal, Count Time: 1 min, Background Subtract: none, Cross talk reduction: Off).
Data was analyzed in Excel® (Microsoft®) and ActivityBase® (Idbs®). The reaction in the absence of enzyme was used to determine the background signal, which was subtracted from the enzymatic reactions. Positive control reactions were performed in the absence of compound, from which the background corrected activity was set as 100% polymerase activity. All data was expressed as a percentage of the positive control.
The compound concentration at which the enzyme-catalyzed rate of RNA synthesis was reduced by 50% (IC50) was calculated by fitting equation (i) to the data where“Y”
[formula] corresponds to the relative enzyme activity (in %), “% Min” is the residual relative activity at saturating compound concentration, “% Max” is the relative maximum enzymatic activity, “X” corresponds to the compound concentration, and “S” is the Hill coefficient (or slope).

in vitro = details: human

`COc1c(/C=C/c2ccc(NS(C)(=O)=O)cc2)cc(-n2ccncc2=O)cc1C(C)(C)C` [Compound I-13] gave an IC50 [1] of 18.6 nM, an IC50 [2] of 0.31 nM and a melting point of 214 to 216 °C. The CC50 (in vitro) was 21400 nM.

From US8158631B2, “Heterocyclic antiviral compounds” (Roche Palo Alto LLC, priority 2009, dated 2012)
